{
  "source": "patent US20170233414A1",
  "about": "“DERIVATIVES OF BODIPY” (OREGON HEALTH & SCIENCE UNIVERSITY, priority 2016, published 2017)",
  "data": [
    {"test": "Fluorescence properties and quantum yield measurements of the BAA library", "assay_type": "physicochemical", "design": "FWHM (full-width-at half max): unit not given here", "settings": "anhydrous DMSO", "procedure,_shortened": "(§1)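 Relative quantum yields used a three-concentration gradient method, with the reference set by absorbance maximum: fluorescein up to 510 nm (ex 470, em 490–800 nm), rhodamine B for 511–595 nm (ex 525, em 545–800 nm), cresyl violet above 595 nm (ex 570, em 590–800 nm). Spectral maxima and FWHM recorded in anhydrous DMSO.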", "units": {"Stokes Shift": "nm"}, "values": [
      {"compound": "COc1ccc(C=O)cc1OCCOc1cc(C=CC2=[N+]3C(=Cc4ccc(CCC(=O)O)n4[B-]3(F)F)C(C)=C2)ccc1OC", "note": "[BAA-74a]", "Stokes Shift": 18},
      {"compound": "COc1ccc(C=O)cc1OCCOc1cc(C=CC2=[N+]3C(=Cc4ccc(C(=Cc5ccc(OC)c(OCCOc6cc(C=O)ccc6OC)c5)CC(=O)O)n4[B-]3(F)F)C(C)=C2)ccc1OC", "note": "[BAA-74b]", "Stokes Shift": 17},
      {"compound": "CC1=CC(C=Cc2ccc(N(CCC#N)CCC#N)cc2)=[N+]2C1=Cc1ccc(CCC(=O)O)n1[B-]2(F)F", "note": "[BAA-75a]", "Stokes Shift": 49},
      {"compound": "CC1=CC(C=Cc2ccc(N(CCC#N)CCC#N)cc2)=[N+]2C1=Cc1ccc(C(=Cc3ccc(N(CCC#N)CCC#N)cc3)CC(=O)O)n1[B-]2(F)F", "note": "[BAA-75b]", "Stokes Shift": 55},
      {"compound": "CC1=CC(C=Cc2c[nH]c3c(OCc4ccccc4)cccc23)=[N+]2C1=Cc1ccc(CCC(=O)O)n1[B-]2(F)F", "note": "[BAA-77a]", "Stokes Shift": 31},
      {"compound": "CC1=CC(C=Cc2ccc(OCc3ccc([N+](=O)[O-])cc3)cc2)=[N+]2C1=Cc1ccc(CCC(=O)O)n1[B-]2(F)F", "note": "[BAA-78a]", "Stokes Shift": 11},
      {"compound": "CC1=CC(C=Cc2ccc(OCc3ccc([N+](=O)[O-])cc3)cc2)=[N+]2C1=Cc1ccc(C(=Cc3ccc(OCc4ccc([N+](=O)[O-])cc4)cc3)CC(=O)O)n1[B-]2(F)F", "note": "[BAA-78b]", "Stokes Shift": 14}
    ]},
    {"test": "Fluorescence properties and quantum yield measurements of the BAA library", "assay_type": "physicochemical", "design": "FWHM (full-width-at half max): unit not given here", "settings": "anhydrous DMSO, polystyrene 96 well plate", "procedure,_shortened": "as §1", "units": {"λmax ABS": "nm", "λmax EM": "nm"}, "values": [
      {"compound": "COc1ccc(C=O)cc1OCCOc1cc(C=CC2=[N+]3C(=Cc4ccc(CCC(=O)O)n4[B-]3(F)F)C(C)=C2)ccc1OC", "note": "[BAA-74a]", "λmax ABS": 584, "λmax EM": 602},
      {"compound": "COc1ccc(C=O)cc1OCCOc1cc(C=CC2=[N+]3C(=Cc4ccc(C(=Cc5ccc(OC)c(OCCOc6cc(C=O)ccc6OC)c5)CC(=O)O)n4[B-]3(F)F)C(C)=C2)ccc1OC", "note": "[BAA-74b]", "λmax ABS": 583, "λmax EM": 600},
      {"compound": "CC1=CC(C=Cc2ccc(N(CCC#N)CCC#N)cc2)=[N+]2C1=Cc1ccc(CCC(=O)O)n1[B-]2(F)F", "note": "[BAA-75a]", "λmax ABS": 614, "λmax EM": 663},
      {"compound": "CC1=CC(C=Cc2ccc(N(CCC#N)CCC#N)cc2)=[N+]2C1=Cc1ccc(C(=Cc3ccc(N(CCC#N)CCC#N)cc3)CC(=O)O)n1[B-]2(F)F", "note": "[BAA-75b]", "λmax ABS": 605, "λmax EM": 660},
      {"compound": "CC1=CC(C=Cc2c[nH]c3c(OCc4ccccc4)cccc23)=[N+]2C1=Cc1ccc(CCC(=O)O)n1[B-]2(F)F", "note": "[BAA-77a]", "λmax ABS": 603, "λmax EM": 634},
      {"compound": "CC1=CC(C=Cc2ccc(OCc3ccc([N+](=O)[O-])cc3)cc2)=[N+]2C1=Cc1ccc(CCC(=O)O)n1[B-]2(F)F", "note": "[BAA-78a]", "λmax ABS": 581, "λmax EM": 592},
      {"compound": "CC1=CC(C=Cc2ccc(OCc3ccc([N+](=O)[O-])cc3)cc2)=[N+]2C1=Cc1ccc(C(=Cc3ccc(OCc4ccc([N+](=O)[O-])cc4)cc3)CC(=O)O)n1[B-]2(F)F", "note": "[BAA-78b]", "λmax ABS": 579, "λmax EM": 593}
    ]},
    {"test": "Fluorescence properties and quantum yield measurements of the BAA library", "assay_type": "physicochemical", "design": "FWHM (full-width-at half max): unit not given here", "settings": "anhydrous DMSO; emission", "procedure,_shortened": "as §1", "values": [
      {"compound": "COc1ccc(C=O)cc1OCCOc1cc(C=CC2=[N+]3C(=Cc4ccc(CCC(=O)O)n4[B-]3(F)F)C(C)=C2)ccc1OC", "note": "[BAA-74a]", "FWHM (full-width-at half max)": 59},
      {"compound": "COc1ccc(C=O)cc1OCCOc1cc(C=CC2=[N+]3C(=Cc4ccc(C(=Cc5ccc(OC)c(OCCOc6cc(C=O)ccc6OC)c5)CC(=O)O)n4[B-]3(F)F)C(C)=C2)ccc1OC", "note": "[BAA-74b]", "FWHM (full-width-at half max)": 51},
      {"compound": "CC1=CC(C=Cc2ccc(N(CCC#N)CCC#N)cc2)=[N+]2C1=Cc1ccc(CCC(=O)O)n1[B-]2(F)F", "note": "[BAA-75a]", "FWHM (full-width-at half max)": 91},
      {"compound": "CC1=CC(C=Cc2ccc(N(CCC#N)CCC#N)cc2)=[N+]2C1=Cc1ccc(C(=Cc3ccc(N(CCC#N)CCC#N)cc3)CC(=O)O)n1[B-]2(F)F", "note": "[BAA-75b]", "FWHM (full-width-at half max)": 91},
      {"compound": "CC1=CC(C=Cc2c[nH]c3c(OCc4ccccc4)cccc23)=[N+]2C1=Cc1ccc(CCC(=O)O)n1[B-]2(F)F", "note": "[BAA-77a]", "FWHM (full-width-at half max)": 61},
      {"compound": "CC1=CC(C=Cc2ccc(OCc3ccc([N+](=O)[O-])cc3)cc2)=[N+]2C1=Cc1ccc(CCC(=O)O)n1[B-]2(F)F", "note": "[BAA-78a]", "FWHM (full-width-at half max)": 46},
      {"compound": "CC1=CC(C=Cc2ccc(OCc3ccc([N+](=O)[O-])cc3)cc2)=[N+]2C1=Cc1ccc(C(=Cc3ccc(OCc4ccc([N+](=O)[O-])cc4)cc3)CC(=O)O)n1[B-]2(F)F", "note": "[BAA-78b]", "FWHM (full-width-at half max)": 39}
    ]},
    {"test": "Fluorescence properties and quantum yield measurements of the BAA library", "assay_type": "physicochemical", "design": "FWHM (full-width-at half max): unit not given here", "settings": "anhydrous DMSO; relative to reference fluorophore at three concentrations", "procedure,_shortened": "as §1", "values": [
      {"compound": "COc1ccc(C=O)cc1OCCOc1cc(C=CC2=[N+]3C(=Cc4ccc(CCC(=O)O)n4[B-]3(F)F)C(C)=C2)ccc1OC", "note": "[BAA-74a]", "φfl (quantum yield)": 0.15},
      {"compound": "COc1ccc(C=O)cc1OCCOc1cc(C=CC2=[N+]3C(=Cc4ccc(C(=Cc5ccc(OC)c(OCCOc6cc(C=O)ccc6OC)c5)CC(=O)O)n4[B-]3(F)F)C(C)=C2)ccc1OC", "note": "[BAA-74b]", "φfl (quantum yield)": 0.22},
      {"compound": "CC1=CC(C=Cc2ccc(N(CCC#N)CCC#N)cc2)=[N+]2C1=Cc1ccc(CCC(=O)O)n1[B-]2(F)F", "note": "[BAA-75a]", "φfl (quantum yield)": 0.08},
      {"compound": "CC1=CC(C=Cc2ccc(N(CCC#N)CCC#N)cc2)=[N+]2C1=Cc1ccc(C(=Cc3ccc(N(CCC#N)CCC#N)cc3)CC(=O)O)n1[B-]2(F)F", "note": "[BAA-75b]", "φfl (quantum yield)": 0.18},
      {"compound": "CC1=CC(C=Cc2c[nH]c3c(OCc4ccccc4)cccc23)=[N+]2C1=Cc1ccc(CCC(=O)O)n1[B-]2(F)F", "note": "[BAA-77a]", "φfl (quantum yield)": 0.50},
      {"compound": "CC1=CC(C=Cc2ccc(OCc3ccc([N+](=O)[O-])cc3)cc2)=[N+]2C1=Cc1ccc(CCC(=O)O)n1[B-]2(F)F", "note": "[BAA-78a]", "φfl (quantum yield)": 0.19},
      {"compound": "CC1=CC(C=Cc2ccc(OCc3ccc([N+](=O)[O-])cc3)cc2)=[N+]2C1=Cc1ccc(C(=Cc3ccc(OCc4ccc([N+](=O)[O-])cc4)cc3)CC(=O)O)n1[B-]2(F)F", "note": "[BAA-78b]", "φfl (quantum yield)": 0.37}
    ]},
    {"test": "not given", "settings": "in ethanol; reference for max absorbance between 511-595 nm; cited from earlier work", "values": [
      {"compound": "CCN(CC)c1ccc2c(-c3ccccc3C(=O)O)c3ccc(=[N+](CC)CC)cc-3oc2c1.[Cl-]", "note": "[Rhodamine B]", "φfl (quantum yield)": 0.70}
    ]},
    {"test": "not given", "settings": "in methanol; reference for max absorbance above 595 nm; cited from earlier work", "values": [
      {"compound": "Cresyl violet", "φfl (quantum yield)": 0.54}
    ]}
  ]
}
